From patent US11771709B2, “ALK protein degradation agent and anti-tumor application thereof” (ShanghaiTech University, priority 2017, dated 2023)

Legend:
SR (NPM-ALK) cells = assay: Growth inhibition IC50 in ALCL SR cells (CCK8/WST, 72 hours); format: cell-based; settings: SR cells, WST
[1] = tested on: PC9 (EGFR, exon 19 del) cells; assay: Growth inhibition IC50 in EGFR mutant lung adenocarcinoma PC9 cells; format: cell-based; settings: Homo sapiens, PC-9; PC9 cells, CTB, n ≥ 3; read-out: Half Inhibitory Concentration (IC50) Mean
[2] = tested on: PC9Brc1 (EGFR, exon 19 del+T790M) cells; assay: Growth inhibition IC50 in EGFR mutant lung cancer PC9Brc1 cells; format: cell-based; settings: CTB, n ≥ 3, read-out: Half Inhibitory Concentration (IC50) Mean
[3] = target: T1, ALK protein in SR (NPM-ALK) cells (Homo sapiens, UniProt Q9UM73); assay: Western blot of ALK protein level (degradation, DC50), ALK phosphorylation and downstream signaling in SR cells; format: cell-based; settings: ALK protein degradation in SR cells
T1 construct: NPM (nucleophosmin, NPM1, P06748) fusion partner; host or cells: SR (ALCL) cells; the other entry of the earlier key: NPM1 (P06748, Nucleophosmin)
T1 sequence (Q9UM73 with tags, fused parts or gaps): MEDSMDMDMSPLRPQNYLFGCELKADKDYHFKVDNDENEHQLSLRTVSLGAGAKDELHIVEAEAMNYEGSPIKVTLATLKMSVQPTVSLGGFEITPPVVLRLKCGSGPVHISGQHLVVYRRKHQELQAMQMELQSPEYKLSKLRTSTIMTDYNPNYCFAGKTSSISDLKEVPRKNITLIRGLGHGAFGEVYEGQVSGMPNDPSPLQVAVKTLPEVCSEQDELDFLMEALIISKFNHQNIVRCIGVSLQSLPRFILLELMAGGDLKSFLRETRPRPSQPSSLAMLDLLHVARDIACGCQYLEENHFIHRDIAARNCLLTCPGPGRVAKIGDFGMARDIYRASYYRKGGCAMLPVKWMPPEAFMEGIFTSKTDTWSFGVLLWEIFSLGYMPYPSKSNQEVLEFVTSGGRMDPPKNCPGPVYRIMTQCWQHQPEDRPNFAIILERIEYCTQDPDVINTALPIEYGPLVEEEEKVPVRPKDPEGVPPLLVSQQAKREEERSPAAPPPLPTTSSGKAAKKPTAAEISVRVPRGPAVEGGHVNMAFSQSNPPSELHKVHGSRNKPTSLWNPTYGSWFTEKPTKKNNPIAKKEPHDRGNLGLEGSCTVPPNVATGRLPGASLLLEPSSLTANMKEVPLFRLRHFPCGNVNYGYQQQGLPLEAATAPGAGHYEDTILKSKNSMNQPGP

[4] = target: T2, ALK protein in H3122 (EML4-ALK) cells (Homo sapiens, UniProt Q9UM73); assay: Western blot of ALK protein level (degradation, DC50), ALK phosphorylation and downstream signaling in H3122 cells; format: cell-based; settings: for DC50: ALK protein degradation in H3122 cells
T2 construct: EML4 (Echinoderm microtubule-associated protein-like 4, Q9HC35) fusion partner, variant 1; host or cells: NCI-H3122 lung adenocarcinoma cells; the other entry of the earlier key: EML4 (Q9HC35, Echinoderm microtubule-associated protein-like 4)
T2 sequence (Q9UM73 with tags, fused parts or gaps): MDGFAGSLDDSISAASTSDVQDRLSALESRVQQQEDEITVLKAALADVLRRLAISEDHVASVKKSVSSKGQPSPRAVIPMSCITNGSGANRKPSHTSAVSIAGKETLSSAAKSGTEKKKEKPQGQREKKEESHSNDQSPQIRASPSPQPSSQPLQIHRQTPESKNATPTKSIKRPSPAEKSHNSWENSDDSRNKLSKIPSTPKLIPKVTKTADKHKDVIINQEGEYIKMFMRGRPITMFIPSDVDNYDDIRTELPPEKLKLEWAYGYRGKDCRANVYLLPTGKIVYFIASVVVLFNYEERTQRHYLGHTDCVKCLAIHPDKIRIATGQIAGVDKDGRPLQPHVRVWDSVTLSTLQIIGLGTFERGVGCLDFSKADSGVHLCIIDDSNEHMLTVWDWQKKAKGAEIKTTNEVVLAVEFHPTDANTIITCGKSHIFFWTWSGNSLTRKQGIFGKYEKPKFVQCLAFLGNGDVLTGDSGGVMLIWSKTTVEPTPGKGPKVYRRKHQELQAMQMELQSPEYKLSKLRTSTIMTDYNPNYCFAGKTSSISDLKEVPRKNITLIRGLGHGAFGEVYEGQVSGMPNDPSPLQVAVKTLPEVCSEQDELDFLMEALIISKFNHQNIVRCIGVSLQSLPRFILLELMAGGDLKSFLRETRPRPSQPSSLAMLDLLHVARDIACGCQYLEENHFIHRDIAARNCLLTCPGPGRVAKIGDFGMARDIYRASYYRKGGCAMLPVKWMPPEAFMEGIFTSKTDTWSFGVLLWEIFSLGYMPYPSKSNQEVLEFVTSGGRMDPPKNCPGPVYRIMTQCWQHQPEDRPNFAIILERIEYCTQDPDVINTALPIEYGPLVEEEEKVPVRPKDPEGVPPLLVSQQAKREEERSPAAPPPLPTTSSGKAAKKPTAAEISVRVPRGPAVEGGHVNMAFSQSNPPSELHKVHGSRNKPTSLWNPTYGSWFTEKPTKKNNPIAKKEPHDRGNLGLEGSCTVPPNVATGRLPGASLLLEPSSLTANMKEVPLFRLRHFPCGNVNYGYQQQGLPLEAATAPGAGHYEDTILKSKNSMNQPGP

[5] = tested on: NCI-H3122 (EML4-ALK, V1) cells; assay: Growth inhibition IC50 in lung cancer H3122 cells (Cell Titer Blue / Cell Titer Glo); settings: Homo sapiens, NCI-H3122, H3122 cells
[6] = tested on: U118MG cells (FIG-ROS1 gene fusion); assay: Growth inhibition IC50 in ROS1 mutant glioblastoma cell line U118MG (72 hours); format: cell-based; settings: Homo sapiens, U-118-MG, 72 h, read-out: Half Inhibitory Concentration (IC50) Mean
MOLM13 cells (FLT3-ITD) = assay: Growth inhibition IC50 in FLT3-ITD AML cell line MOLM13; format: cell-based; settings: Homo sapiens, MOLM-13, read-out: Half Inhibitory Concentration (IC50) Mean
[7] = 72 h, Brigatinib-based PROTAD molecules (Table 3)
[8] = Ceritinib based ALK PROTAD compounds (Table 5)

DC50 [4]	IC50 ([5]; CTB (Cell Titer Blue))	Compound	also measured
20 to 100 nM	6 nM	Cc1cc(Nc2ncc(Cl)c(Nc3ccccc3S(=O)(=O)C(C)C)n2)c(OC(C)C)cc1C1CCN(C(=O)CCOCCOCCOCCNc2cccc3c2C(=O)N(C2CCC(=O)NC2=O)C3=O)CC1 (centres unmarked) [SIAIS151028, 4-((2-(2-(2-(3-(4-(4-((5-chloro-4-((2-(isopropylsulfonyl)phenyl)amino)pyrimidin-2-yl)amino)-5-isopropoxy-2-methylphenyl)piperidin-1-yl)-3-oxopropoxy)ethoxy)ethoxy)ethyl)amino)-2-(2,6-dioxopiperidin-3-yl)isoindoline-1,3-dione]	IC50 (SR (NPM-ALK) cells; [8]): 38 nM; IC50 ([5]; CTG (Cell Titer Glo)): 80 nM
50 to 100 nM	33 nM	Cc1cc(Nc2ncc(Cl)c(Nc3ccccc3S(=O)(=O)C(C)C)n2)c(OC(C)C)cc1C1CCN(C(=O)CCCNc2cccc3c2C(=O)N(C2CCC(=O)NC2=O)C3=O)CC1 (centres unmarked) [SIAIS151035, 4-((4-(4-(4-((5-chloro-4-((2-(isopropylsulfonyl)phenyl)amino)pyrimidin-2-yl)amino)-5-isopropoxy-2-methylphenyl)piperidin-1-yl)-4-oxobutyl)amino)-2-(2,6-dioxopiperidin-3-yl)isoindoline-1,3-dione]	
100 to 500 nM	1240 nM	Cc1cc(Nc2ncc(Cl)c(Nc3ccccc3S(=O)(=O)C(C)C)n2)c(OC(C)C)cc1C1CCN(C(=O)CCCCCCCCC(=O)N[C@H](C(=O)N2C[C@H](O)C[C@H]2C(=O)NCc2ccc(-c3scnc3C)cc2)C(C)(C)C)CC1 [SIAIS074025, (2S,4R)-1-((S)-2-(10-(4-(4-((5-chloro-4-((2-(isopropylsulfonyl)phenyl)amino)pyrimidin-2-yl)amino)-5-isopropoxy-2-methylphenyl)piperidin-1-yl)-10-oxodecanamido)-3,3-dimethylbutanoyl)-4-hydroxy-N-(4-(4-methylthiazol-5-yl)benzyl)pyrrolidine-2-carboxamide]	
20 to 100 nM	269 nM	Cc1cc(Nc2ncc(Cl)c(Nc3ccccc3S(=O)(=O)C(C)C)n2)c(OC(C)C)cc1C1CCN(C(=O)CCCCCC(=O)N[C@H](C(=O)N2C[C@H](O)C[C@H]2C(=O)NCc2ccc(-c3scnc3C)cc2)C(C)(C)C)CC1 [SIAIS074022, (2S,4R)-1-((S)-2-(7-(4-(4-((5-chloro-4-((2-(isopropylsulfonyl)phenyl)amino)pyrimidin-2-yl)amino)-5-isopropoxy-2-methylphenyl)piperidin-1-yl)-7-oxoheptanamido)-3,3-dimethylbutanoyl)-4-hydroxy-N-(4-(4-methylthiazol-5-yl)benzyl)pyrrolidine-2-carboxamide]	

The next lines start with the molecule.

Compound	DC50 [4]	IC50 ([5]; CTB (Cell Titer Blue))	also measured
COc1cc(N2CCC(N3CCN(C(=O)CCCCCNc4cccc5c4C(=O)N(C4CCC(=O)NC4=O)C5=O)CC3)CC2)ccc1Nc1ncc(Cl)c(Nc2ccccc2P(C)(C)=O)n1 (centres unmarked) [SIAIS164022, 4-((6-(4-(1-(4-((5-chloro-4-((2-(dimethylphosphoryl)phenyl)amino)pyrimidin-2-yl)amino)-3-methoxyphenyl)piperidin-4-yl)piperazin-1-yl)-6-oxohexyl)amino)-2-(2,6-dioxopiperidin-3-yl)isoindoline-1,3-dione]	1 to 10 nM		IC50 (SR (NPM-ALK) cells; [7]): 3.3 ± 2.2 nM; IC50 [1]: 233 nM; IC50 [2]: 696 nM; DC50 [3]: 1 to 10 nM
Cc1cc(Nc2ncc(Cl)c(Nc3ccccc3S(=O)(=O)C(C)C)n2)c(OC(C)C)cc1C1CCN(C(=O)CCCC(=O)N[C@H](C(=O)N2C[C@H](O)C[C@H]2C(=O)NCc2ccc(-c3scnc3C)cc2)C(C)(C)C)CC1 [SIAIS074018, (2S,4R)-1-((S)-2-(5-(4-(4-((5-chloro-4-((2-(isopropylsulfonyl)phenyl)amino)pyrimidin-2-yl)amino)-5-isopropoxy-2-methylphenyl)piperidin-1-yl)-5-oxopentanamido)-3,3-dimethylbutanoyl)-4-hydroxy-N-(4-(4-methylthiazol-5-yl)benzyl)pyrrolidine-2-carboxamide]	100 to 500 nM	209 nM	
Cc1cc(Nc2ncc(Cl)c(Nc3ccccc3S(=O)(=O)C(C)C)n2)c(OC(C)C)cc1C1CCN(C(=O)CNc2cccc3c2C(=O)N(C2CCC(=O)NC2=O)C3=O)CC1 (centres unmarked) [SIAIS151037, 4-((2-(4-(4-((5-chloro-4-((2-(isopropylsulfonyl)phenyl)amino)pyrimidin-2-yl)amino)-5-isopropoxy-2-methylphenyl)piperidin-1-yl)-2-oxoethyl)amino)-2-(2,6-dioxopiperidin-3-yl)isoindoline-1,3-dione]	50 to 100 nM	151 nM	
Cc1cc(Nc2ncc(Cl)c(Nc3ccccc3S(=O)(=O)C(C)C)n2)c(OC(C)C)cc1C1CCN(C(=O)CCCCC(=O)N[C@H](C(=O)N2C[C@H](O)C[C@H]2C(=O)NCc2ccc(-c3scnc3C)cc2)C(C)(C)C)CC1 [SIAIS074021, (2S,4R)-1-((S)-2-(6-(4-(4-((5-chloro-4-((2-(isopropylsulfonyl)phenyl)amino)pyrimidin-2-yl)amino)-5-isopropoxy-2-methylphenyl)piperidin-1-yl)-6-oxohexanamido)-3,3-dimethylbutanoyl)-4-hydroxy-N-(4-(4-methylthiazol-5-yl)benzyl)pyrrolidine-2-carboxamide]	50 to 100 nM	125 nM	
Cc1cc(Nc2ncc(Cl)c(Nc3ccccc3S(=O)(=O)C(C)C)n2)c(OC(C)C)cc1C1CCN(C(=O)CCOCCNc2cccc3c2C(=O)N(C2CCC(=O)NC2=O)C3=O)CC1 (centres unmarked) [SIAIS151031, 4-((2-(3-(4-(4-((5-chloro-4-((2-(isopropylsulfonyl)phenyl)amino)pyrimidin-2-yl)amino)-5-isopropoxy-2-methylphenyl)piperidin-1-yl)-3-oxopropoxy)ethyl)amino)-2-(2,6-dioxopiperidin-3-yl)isoindoline-1,3-dione]	100 to 500 nM	7 nM	IC50 (SR (NPM-ALK) cells; [8]): 85 nM; IC50 ([5]; CTG (Cell Titer Glo)): 81 nM
COc1cc(N2CCC(NC(=O)CCCCCCC(=O)N[C@H](C(=O)N3C[C@H](O)C[C@H]3C(=O)NCc3ccc(-c4scnc4C)cc3)C(C)(C)C)CC2)ccc1Nc1ncc(Cl)c(Nc2ccccc2P(C)(C)=O)n1 [SIAIS164147, N1-(1-(4-((5-chloro-4-((2-(dimethylphosphoryl)phenyl)amino)pyrimidin-2-yl)amino)-3-methoxyphenyl)piperidin-4-yl)-N8-((S)-1-((2S,4R)-4-hydroxy-2-((4-(4-methylthiazol-5-yl)benzyl)carbamoyl)pyrrolidin-1-yl)-3,3-dimethyl-1-oxobutan-2-yl)octanediamide]	0.02 to 1 nM		IC50 (SR (NPM-ALK) cells; [7]): 2 ± 1.2 nM; IC50 [1]: 321 nM; IC50 [2]: 1280 nM; DC50 [3]: 1 to 10 nM
Cc1cc(Nc2ncc(Cl)c(Nc3ccccc3S(=O)(=O)C(C)C)n2)c(OC(C)C)cc1C1CCN(C(=O)CCOCCOCCNc2cccc3c2C(=O)N(C2CCC(=O)NC2=O)C3=O)CC1 (centres unmarked) [SIAIS151023, 4-((2-(2-(3-(4-(4-((5-chloro-4-((2-(isopropylsulfonyl)phenyl)amino)pyrimidin-2-yl)amino)-5-isopropoxy-2-methylphenyl)piperidin-1-yl)-3-oxopropoxy)ethoxy)ethyl)amino)-2-(2,6-dioxopiperidin-3-yl)isoindoline-1,3-dione]	10 to 100 nM	15 nM	IC50 ([5]; CTG (Cell Titer Glo)): 76 nM
Cc1cc(Nc2ncc(Cl)c(Nc3ccccc3S(=O)(=O)C(C)C)n2)c(OC(C)C)cc1C1CCN(C(=O)CCOCCOCCOCCOCCOCCNc2cccc3c2C(=O)N(C2CCC(=O)NC2=O)C3=O)CC1 (centres unmarked) [SIAIS151029, 4-((18-(4-(4-((5-chloro-4-((2-(isopropylsulfonyl)phenyl)amino)pyrimidin-2-yl)amino)-5-isopropoxy-2-methylphenyl)piperidin-1-yl)-18-oxo-3,6,9,12,15-pentaoxaoctadecyl)amino)-2-(2,6-dioxopiperidin-3-yl)isoindoline-1,3-dione]	10 to 50 nM	23 nM	IC50 ([5]; CTG (Cell Titer Glo)): 95 nM
C[C@@H](Oc1cc(-c2cnn(C3CCNCC3)c2)cnc1N)c1c(Cl)ccc(F)c1Cl [Crizotinib, reference compound]			IC50 [6]: 2570 nM; IC50 (MOLM13 cells (FLT3-ITD)): 291 nM
Cc1cc(Nc2ncc(Cl)c(Nc3ccccc3S(=O)(=O)C(C)C)n2)c(OC(C)C)cc1C1CCN(C(=O)CCCCCCCC(=O)N[C@H](C(=O)N2C[C@H](O)C[C@H]2C(=O)NCc2ccc(-c3scnc3C)cc2)C(C)(C)C)CC1 [SIAIS074024, (2S,4R)-1-((S)-2-(9-(4-(4-((5-chloro-4-((2-(isopropylsulfonyl)phenyl)amino)pyrimidin-2-yl)amino)-5-isopropoxy-2-methylphenyl)piperidin-1-yl)-9-oxononanamido)-3,3-dimethylbutanoyl)-4-hydroxy-N-(4-(4-methylthiazol-5-yl)benzyl)pyrrolidine-2-carboxamide]	10 to 50 nM	721 nM	concentration at which ALK protein level was reduced ([4]; H3122 cells, western blot): 50 nM
